According to publication PMC10460844, “Real‐Time Monitoring of Multitarget Antimicrobial Mechanisms of Peptoids Using Label‐Free Imaging with Optical Diffraction Tomography” (Advanced Science, 2023):
Values after ≈ are worked out from the molar mass of the structure shown. Where a name gives a salt, the structure may show the parent alone. Read-outs that look alike come from different tables or passages of the source. Square brackets hold non-standard residues; d marks the D form. Peptide text beside a SMILES is read from it. Gly(N(CH2)2(3-indolyl)) = O=C(O)CNCCc1c[nH]c2ccccc12; Nspe = C[C@H](NCC(=O)O)c1ccccc1; Nphe = O=C(O)CNCc1ccccc1; Nlys = NCCCCNCC(=O)O

Legend:
[1] = system: E. coli ATCC 25922; format: cell-based, Escherichia coli
Description: (§1) The antibacterial activity of the peptoids was evaluated against gram‐positive (Staphylococcus aureus, ATCC 25 923) and gram‐negative (Escherichia coli, ATCC 25 922) bacteria. […] The MIC of each peptoid was determined using a broth dilution assay. For each assay, the primary culture of either S. aureus or E. coli was grown overnight in cation‐adjusted Mueller Hinton broth 2 (MHB2) media at 37 °C with shaking. A secondary culture was prepared the next day, grown for 3–4 h, and then diluted in MHB2 media with a final concentration of 0.001% acetic acid and 0.02% bovine serum albumin to obtain a calculated optical density (OD) of 0.001. This corresponded to ≈2–5 × 10^5 colony‐forming units (CFU mL^−1) of bacteria. Using 96‐well polypropylene plates (Eppendorf, Hamburg, Germany), 100 µL of 2–5 × 10^5 CFU mL^−1 bacteria were added in triplicate for each peptoid. Each peptoid was assayed at six different concentrations in two‐fold serial dilutions. The maximum peptoid concentration was 25 µM. […] The MIC value determination was performed in triplicate. The MIC was defined as the lowest peptoid concentration that prevented turbidity during visual inspection.

[2] = system: rat erythrocytes; experiment: Hemolysis assay; format: cell-based
Summary of the method: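 Washed Sprague-Dawley rat erythrocytes (10% suspension in PBS pH 7.4) mixed with peptoids (0–100 µM), 60 min at 37 °C; supernatant A540 expressed as % of 1% Triton X-100 lysis. HC10/HC50 are concentrations giving 10%/50% hemolysis; Hmax is hemolysis at 100 µM.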

[3] = system: S. aureus ATCC 25923; format: cell-based, Staphylococcus aureus
Description: as §1

[4] = system: E. coli ATCC 25922; experiment: NPN uptake assay (outer membrane); format: cell-based; details: E. coli ATCC 25922, 5 mM HEPES pH 7.2, 10 µM NPN, fluorescence
Description: 14. In vitro biological assays […]
The ability of peptoids to increase the permeability of the outer membrane of Gram-negative bacteria was determined by measuring the incorporation of the NPN fluorescent dye into the outer membrane of E. coli ATCC 25922. Bacterial cells were suspended to a final concentration of OD600 = 0.05 in 5 mM HEPES buffer, pH 7.2, containing 5 mM KCN. Then […]
200 μL NPN dye was added to wells of a 96 well plate to produce a final concentration of 10 μM, and the background fluorescence was recorded (λex = 350 nm, λem = 420 nm). Aliquots of peptoids were added to the well, and fluorescence was recorded as a function of time until there was no further increase in fluorescence. Increases of the permeability of the outer membrane after the addition of peptoids was reflected by increased fluorescence values as a result of NPN incorporation into the membrane. […]

[5] = system: E. faecium KCTC 13225; format: cell-based; details: KCTC 13225
[6] = system: E. faecalis KCTC 3511; format: cell-based; details: KCTC 3511
[7] = system: S. typhimurium SL 1344; format: cell-based; details: SL 1344
[8] = Analytical reversed-phase HPLC elution (hydrophobicity); format: physicochemical; details: analytical RP-HPLC, 1 mL/min, UV 220 nm; for HPLC elution (%ACN): Table 1, SunFire C18 […] 250 mm, water/ACN + 0.1% TFA, 5% B 2 min then linear to 100% B over 30 min, used as measure of hydrophobicity
Summary of the method: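 Analytical reversed-phase HPLC on a C18 column (4.6 × 250 mm, 5 μm) at 1 mL/min, water/acetonitrile each with 0.1% TFA. Held at 5% B for 2 min, then linear to 100% B over 30 min and held 5 min, with UV detection at 220 nm; retention time (tR) serves as hydrophobicity measure.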

[9] = system: E. coli ML-35 cells; experiment: ONPG hydrolysis assay (inner membrane); format: cell-based; details: 1.5 mM ONPG, 10 mM sodium phosphate pH 7.4, absorbance 405 nm
Description: The permeability of the inner membrane was determined using E. coli ML-35 cells […]
The intact bacterial inner membrane is non-permeable to o-nitrophenyl-β-D-galactopyranoside (OPNG), a chromogenic substrate of the β-galactosidase.
Following damage to the inner membrane, OPNG enters the cells and is metabolized by β-galactosidase creating a chromogenic […]. E. coli cells were washed in 10 mM sodium phosphate (pH 7.4) containing 100 mM NaCl and resuspended in the same buffer at a final concentration of OD600 = 0.5 containing 1.5 mM ONPG. The hydrolysis of ONPG and generation of o-nitrophenol over time were monitored as absorbance change at 405 nm following the addition of peptoids. […]

[10] = Table S2, broth dilution, MHB2, 37 °C 24 h, max 25 µM, mean of triplicate
[11] = Table S3, counter-ion exchange series (TFA, HCl, AcOH salts), mean of triplicate

SMILES	MIC E. coli ATCC25922 ([1]; ATCC 25922) [µM]	Hmax (100 µM) [2] [%]	HC10 ([2]; red cells of rat) [µM]	HC50 ([2]; red cells of rat) [µM]	MIC S. aureus ATCC25923 ([3]; ATCC 25923) [µM]	outer membrane disruption (NPN uptake) [4]	MIC E. coli ATCC25922 [1, 10] [µM]	MIC E. coli ATCC25922 [1, 11] [µM]	MIC E. faecium KCTC 13225 [5] [µM]	MIC E. faecalis KCTC 3511 [6] [µM]	MIC S. typhimurium SL 1344 [7] [µM]	H max (100 µM) [2] [%]	HC10 ([2]; pH 7.4) [µM]	HC50 ([2]; pH 7.4) [µM]	HPLC elution (%ACN) [8] [%ACN]	MIC S. aureus ATCC25923 [3, 10] [µM]	inner membrane disruption (ONPG hydrolysis) [9]	HPLC elution ([8]; Table S1, SunFire C18, water/ACN + 0.1% TFA, 5 to 100% B linear over 30 min, approximate comparison of hydrophobicity) [% MeCN]
C[C@@H](c1ccccc1)N(CC(=O)N(CCCCN)CC(=O)N(CCc1c[nH]c2ccccc12)CC(=O)N(CCc1c[nH]c2ccccc12)CC(N)=O)C(=O)CN(CCCCN)C(=O)CN(CCCCN)C(=O)CN(C(=O)CN(C(=O)CN(CCCCN)C(=O)CN(C(=O)CN(C(=O)CNCCCCN)[C@@H](C)c1ccccc1)[C@@H](C)c1ccccc1)[C@@H](C)c1ccccc1)[C@@H](C)c1ccccc1 [29-HCl] (H-[Nlys][Nspe][Nspe][Nlys][Nspe][Nspe][Nlys][Nlys][Nspe][Nlys][Gly(N(CH2)2(3-indolyl))][Gly(N(CH2)2(3-indolyl))]-NH2)	12.5	4.3±0.3	> 100	> 100	12.5	–	–	–	–	–	–	–	–	–	–	–	–	–
C[C@@H](c1ccccc1)N(CC(N)=O)C(=O)CN(CCCCN)C(=O)CN(CCCCN)C(=O)CN(C(=O)CN(C(=O)CN(CCCCN)C(=O)CN(C(=O)CN(C(=O)CN(CCCCN)C(=O)CN(CCc1c[nH]c2ccccc12)C(=O)CN(CCc1c[nH]c2ccccc12)C(=O)CNCCCCN)[C@@H](C)c1ccccc1)[C@@H](C)c1ccccc1)[C@@H](C)c1ccccc1)[C@@H](C)c1ccccc1 [32-AcOH]	6.3 (≈ 11.7 µg/mL)	13.8±1.1	83.0	> 100	6.3 (≈ 11.7 µg/mL)	–	–	–	–	–	–	–	–	–	–	–	–	–
C[C@@H](c1ccccc1)N(CC(N)=O)C(=O)CN(CCCCN)C(=O)CN(CCCCN)C(=O)CN(C(=O)CN(C(=O)CN(CCCCN)C(=O)CN(C(=O)CN(C(=O)CN(CCCCN)C(=O)CN(CCc1c[nH]c2ccccc12)C(=O)CN(CCc1c[nH]c2ccccc12)C(=O)CNCCCCN)[C@@H](C)c1ccccc1)[C@@H](C)c1ccccc1)[C@@H](C)c1ccccc1)[C@@H](C)c1ccccc1 [32-HCl]	6.3	8.7±0.6	> 100	> 100	6.3	–	–	–	–	–	–	–	–	–	–	–	–	–
C[C@@H](c1ccccc1)N(CC(=O)N(CCCCN)CC(=O)N(CC(=O)N(CC(=O)N(CCCCN)CC(=O)N(CC(=O)N(CC(=O)N(CCCCN)CC(N)=O)[C@@H](C)c1ccccc1)[C@@H](C)c1ccccc1)[C@@H](C)c1ccccc1)[C@@H](C)c1ccccc1)C(=O)CN(C(=O)CN(CCCCN)C(=O)CN(CCc1c[nH]c2ccccc12)C(=O)CNCCc1c[nH]c2ccccc12)[C@@H](C)c1ccccc1 [37-AcOH] (H-[Gly(N(CH2)2(3-indolyl))][Gly(N(CH2)2(3-indolyl))][Nlys][Nspe][Nspe][Nlys][Nspe][Nspe][Nlys][Nspe][Nspe][Nlys]-NH2)	6.3 (≈ 12 µg/mL)	98.9±8.0	12.5	26.0	1.6 (≈ 3.04 µg/mL)	–	–	–	–	–	–	–	–	–	–	–	–	–
C[C@@H](c1ccccc1)N(CC(=O)N(CCCCN)CC(=O)N(CC(=O)N(CC(=O)N(CCCCN)CC(=O)N(CC(=O)N(CC(=O)N(CCCCN)CC(N)=O)[C@@H](C)c1ccccc1)[C@@H](C)c1ccccc1)[C@@H](C)c1ccccc1)[C@@H](C)c1ccccc1)C(=O)CN(C(=O)CN(CCCCN)C(=O)CN(CCc1c[nH]c2ccccc12)C(=O)CNCCc1c[nH]c2ccccc12)[C@@H](C)c1ccccc1 [37-HCl] (H-[Gly(N(CH2)2(3-indolyl))][Gly(N(CH2)2(3-indolyl))][Nlys][Nspe][Nspe][Nlys][Nspe][Nspe][Nlys][Nspe][Nspe][Nlys]-NH2)	6.3	86.6±5.7	14.4	56.5	3.1	–	–	–	–	–	–	–	–	–	–	–	–	–
C[C@@H](c1ccccc1)N(CC(N)=O)C(=O)CN(C(=O)CN(CCCCN)C(=O)CN(C(=O)CN(C(=O)CN(CCCCN)C(=O)CN(C(=O)CN(C(=O)CN(CCCCN)C(=O)CN(CCc1c[nH]c2ccccc12)C(=O)CN(C(=O)CNCCCCN)[C@@H](C)c1ccccc1)[C@@H](C)c1ccccc1)[C@@H](C)c1ccccc1)[C@@H](C)c1ccccc1)[C@@H](C)c1ccccc1)[C@@H](C)c1ccccc1 [peptoid 10]	–	101.4±5.1	6.9	25.8	0.8 (≈ 1.49 µg/mL)	strongly disrupted	3.1 (≈ 5.76 µg/mL)	3.1	12.5 (≈ 23.2 µg/mL)	12.5 (≈ 23.2 µg/mL)	12.5 (≈ 23.2 µg/mL)	108.1 ± 1.7	6.6	17.0	54.9	1.6 (≈ 2.97 µg/mL)	strongly disrupted	–
C[C@@H](c1ccccc1)N(CC(N)=O)C(=O)CN(C(=O)CN(CCCCN)C(=O)CN(C(=O)CN(C(=O)CN(CCCCN)C(=O)CN(C(=O)CN(C(=O)CN(CCCCN)C(=O)CN(CCc1c[nH]c2ccccc12)C(=O)CN(CCc1c[nH]c2ccccc12)C(=O)CNCCCCN)[C@@H](C)c1ccccc1)[C@@H](C)c1ccccc1)[C@@H](C)c1ccccc1)[C@@H](C)c1ccccc1)[C@@H](C)c1ccccc1 [peptoid 14]	–	112.9±2.1	12.5	21.1	1.6 (≈ 3.04 µg/mL)	strongly disrupted	3.1 (≈ 5.88 µg/mL)	3.1	<0.8	1.6 (≈ 3.04 µg/mL)	12.5 (≈ 23.7 µg/mL)	90.0 ± 7.3	–	–	55.6	< 0.8	strongly disrupted	–
C[C@@H](c1ccccc1)N(CC(=O)N(CCCCN)CC(=O)N(CC(=O)N(CC(N)=O)Cc1ccccc1)Cc1ccccc1)C(=O)CN(CCCCN)C(=O)CN(CCCCN)C(=O)CN(C(=O)CN(C(=O)CN(CCCCN)C(=O)CN(C(=O)CN(C(=O)CNCCCCN)[C@@H](C)c1ccccc1)[C@@H](C)c1ccccc1)[C@@H](C)c1ccccc1)[C@@H](C)c1ccccc1 [peptoid 45] (H-[Nlys][Nspe][Nspe][Nlys][Nspe][Nspe][Nlys][Nlys][Nspe][Nlys][Nphe][Nphe]-NH2)	–	4.5±0.2	–	–	–	–	> 25	–	–	–	–	4.5 ± 0.2	> 100	> 100	–	25 (≈ 44 µg/mL)	–	47.3
